Test results taken from ChEMBL document CHEMBL5370531, “Design, synthesis and pharmacological evaluation of 2,3-dihydrobenzofuran IRAK4 inhibitors for the treatment of diffuse large B-cell lymphoma” (Eur J Med Chem, 2023).
Calls of active or inactive are those of the source. The calls are words filed in the database; no cut-off is given here.

Key:
OCI-Ly10 [1] = assay: Induction of apoptosis in human OCILY10 cells assessed as late apoptotic cells at 1 uM incubated for 48 hrs by Annexin V-FITC/PI staining based flow cytometry (reference value: 3.54 %); format: functional
OCI-Ly10 [2] = assay: Synergistic antiproliferative activity against human OCILY10 cells harboring MYD88 L265P assessed as inhibition of cell growth at 400 nM incubated for 72 hrs in presence of BTK inhibitor, ibrutinib at 12.5 nM by CCK-8 assay (reference value: 34.46 %); format: functional
OCI-Ly10 [3] = assay: Induction of apoptosis in human OCILY10 cells assessed as early apoptotic cells at 0.5 uM incubated for 48 hrs by Annexin V-FITC/PI staining based flow cytometry (reference value: 5.4 %); format: functional
[4] = molecular target: Receptor tyrosine-protein kinase erbB-4 (Homo sapiens) (UniProt Q15303); assay: Inhibition of ERBB4 (unknown origin) at 100 nM incubated for 1 hr in presence of ATP by ELISA analysis
OCI-Ly10 [5] = assay: Induction of apoptosis in human OCILY10 cells harboring MYD88 L265P assessed as early apoptotic cells at 0.1 uM incubated for 48 hrs in presence of BTK inhibitor, ibrutinib by Annexin V-FITC/PI staining based flow cytometry (reference value: 6.76 %); format: functional
OCI-Ly10 [6] = assay: Induction of apoptosis in human OCILY10 cells harboring MYD88 L265P assessed as upregulation of PARP cleavage at 0.1 uM in presence of BTK inhibitor, ibrutinib by immunoblotting analysis; format: functional, cell-based
OCI-Ly10 [7] = assay: Induction of apoptosis in human OCILY10 cells assessed as late apoptotic cells at 0.2 uM incubated for 48 hrs by Annexin V-FITC/PI staining based flow cytometry (reference value: 3.54 %); format: functional
OCI-Ly10 [8] = assay: Induction of apoptosis in human OCILY10 cells harboring MYD88 L265P assessed as late apoptotic cells at 0.1 uM incubated for 48 hrs in presence of BTK inhibitor, ibrutinib by Annexin V-FITC/PI staining based flow cytometry (reference value: 6.59 %); format: functional
OCI-Ly10 [9] = assay: Synergistic antiproliferative activity against human OCILY10 cells harboring MYD88 L265P assessed as inhibition of cell growth at 100 nM incubated for 72 hrs in presence of BTK inhibitor, ibrutinib at 6.2 nM by CCK-8 assay (reference value: 21.36 %); format: functional
[10] = molecular target: Fibroblast growth factor receptor 1 (Homo sapiens) (UniProt P11362); assay: Inhibition of FGFR1 (unknown origin) at 100 nM incubated for 1 hr in presence of ATP by ELISA analysis
OCI-Ly10 [11] = assay: Induction of apoptosis in human OCILY10 cells harboring MYD88 L265P assessed as upregulation of caspase-3 cleavage at 0.1 uM in presence of BTK inhibitor, ibrutinib by immunoblotting analysis; format: functional, cell-based
OCI-Ly10 [12] = assay: Synergistic antiproliferative activity against human OCILY10 cells harboring MYD88 L265P assessed as inhibition of cell growth at 1600 nM incubated for 72 hrs in presence of BTK inhibitor, ibrutinib at 25 nM by CCK-8 assay (reference value: 64.69 %); format: functional
OCI-Ly10 [13] = assay: Induction of apoptosis in human OCILY10 cells at 0.5 uM incubated for 48 hrs by Annexin V-FITC/PI staining based flow cytometry; format: functional
OCI-Ly10 [14] = assay: Synergistic antiproliferative activity against human OCILY10 cells harboring MYD88 L265P assessed as inhibition of cell growth at 400 nM incubated for 72 hrs in presence of BTK inhibitor, ibrutinib at 6.2 nM by CCK-8 assay (reference value: 34.46 %); format: functional
[15] = molecular target: Macrophage colony-stimulating factor 1 receptor (Homo sapiens) (UniProt P07333); assay: Inhibition of CSF1R (unknown origin) at 100 nM incubated for 1 hr in presence of ATP by ELISA analysis
OCI-Ly10 [16] = assay: Synergistic antiproliferative activity against human OCILY10 cells harboring MYD88 L265P assessed as inhibition of cell growth at 1600 nM incubated for 72 hrs in presence of BTK inhibitor, ibrutinib at 12.5 nM by CCK-8 assay (reference value: 64.69 %); format: functional
[17] = molecular target: Vascular endothelial growth factor receptor 1 (Homo sapiens) (UniProt P17948); assay: Inhibition of VEGFR1 (unknown origin) at 100 nM incubated for 1 hr in presence of ATP by ELISA analysis
OCI-Ly10 [18] = assay: Induction of apoptosis in human OCILY10 cells assessed as upregulation of caspase-3 cleavage at 0.1 to 1 uM incubated for 24 hrs by immunoblotting analysis; format: functional, cell-based; settings: dose 0.1-1 µM
[19] = molecular target: Mast/stem cell growth factor receptor Kit (Homo sapiens) (UniProt P10721); assay: Inhibition of C-kit (unknown origin) at 100 nM incubated for 1 hr in presence of ATP by ELISA analysis
OCI-Ly10 [20] = assay: Synergistic antiproliferative activity against human OCILY10 cells harboring MYD88 L265P assessed as inhibition of cell growth at 800 nM incubated for 72 hrs in presence of BTK inhibitor, ibrutinib at 12.5 nM by CCK-8 assay (reference value: 54.76 %); format: functional
[21] = molecular target: Proto-oncogene tyrosine-protein kinase receptor Ret (Homo sapiens) (UniProt P07949); assay: Inhibition of RET (unknown origin) at 100 nM incubated for 1 hr in presence of ATP by ELISA analysis relative to control
OCI-Ly10 [22] = assay: Induction of apoptosis in human OCILY10 cells harboring MYD88 L265P assessed as upregulation of PARP cleavage at 0.2 uM in presence of BTK inhibitor, ibrutinib by immunoblotting analysis; format: functional, cell-based
OCI-Ly10 [23] = assay: Induction of apoptosis in human OCILY10 cells harboring MYD88 L265P assessed as late apoptotic cells at 0.2 uM incubated for 48 hrs in presence of BTK inhibitor, ibrutinib by Annexin V-FITC/PI staining based flow cytometry (reference value: 6.59 %); format: functional
OCI-Ly10 [24] = assay: Synergistic antiproliferative activity against human OCILY10 cells harboring MYD88 L265P assessed as inhibition of cell growth at 200 nM incubated for 72 hrs in presence of BTK inhibitor, ibrutinib at 1.6 nM by CCK-8 assay (reference value: 26.07 %); format: functional
OCI-Ly10 [25] = assay: Induction of apoptosis in human OCILY10 cells harboring MYD88 L265P assessed as upregulation of caspase-3 cleavage at 0.2 uM in presence of BTK inhibitor, ibrutinib by immunoblotting analysis; format: functional, cell-based
OCI-Ly10 [26] = assay: Induction of apoptosis in human OCILY10 cells at 1 uM incubated for 24 hrs by Annexin V-FITC/PI staining based flow cytometry; format: functional
[27] = molecular target: Tyrosine-protein kinase ABL1 (Homo sapiens) (UniProt P00519); assay: Inhibition of ABL (unknown origin) at 100 nM incubated for 1 hr in presence of ATP by ELISA analysis
OCI-Ly10 [28] = assay: Induction of apoptosis in human OCILY10 cells assessed as late apoptotic cells at 0.1 uM incubated for 48 hrs by Annexin V-FITC/PI staining based flow cytometry (reference value: 3.54 %); format: functional
OCI-Ly10 [29] = assay: Induction of apoptosis in human OCILY10 cells assessed as upregulation of PARP cleavage at 0.1 to 1 uM incubated for 48 hrs by immunoblotting analysis; format: functional, cell-based; settings: dose 0.1-1 µM

Vascular endothelial growth factor receptor 1 (Homo sapiens), sequence (P17948 whole entry): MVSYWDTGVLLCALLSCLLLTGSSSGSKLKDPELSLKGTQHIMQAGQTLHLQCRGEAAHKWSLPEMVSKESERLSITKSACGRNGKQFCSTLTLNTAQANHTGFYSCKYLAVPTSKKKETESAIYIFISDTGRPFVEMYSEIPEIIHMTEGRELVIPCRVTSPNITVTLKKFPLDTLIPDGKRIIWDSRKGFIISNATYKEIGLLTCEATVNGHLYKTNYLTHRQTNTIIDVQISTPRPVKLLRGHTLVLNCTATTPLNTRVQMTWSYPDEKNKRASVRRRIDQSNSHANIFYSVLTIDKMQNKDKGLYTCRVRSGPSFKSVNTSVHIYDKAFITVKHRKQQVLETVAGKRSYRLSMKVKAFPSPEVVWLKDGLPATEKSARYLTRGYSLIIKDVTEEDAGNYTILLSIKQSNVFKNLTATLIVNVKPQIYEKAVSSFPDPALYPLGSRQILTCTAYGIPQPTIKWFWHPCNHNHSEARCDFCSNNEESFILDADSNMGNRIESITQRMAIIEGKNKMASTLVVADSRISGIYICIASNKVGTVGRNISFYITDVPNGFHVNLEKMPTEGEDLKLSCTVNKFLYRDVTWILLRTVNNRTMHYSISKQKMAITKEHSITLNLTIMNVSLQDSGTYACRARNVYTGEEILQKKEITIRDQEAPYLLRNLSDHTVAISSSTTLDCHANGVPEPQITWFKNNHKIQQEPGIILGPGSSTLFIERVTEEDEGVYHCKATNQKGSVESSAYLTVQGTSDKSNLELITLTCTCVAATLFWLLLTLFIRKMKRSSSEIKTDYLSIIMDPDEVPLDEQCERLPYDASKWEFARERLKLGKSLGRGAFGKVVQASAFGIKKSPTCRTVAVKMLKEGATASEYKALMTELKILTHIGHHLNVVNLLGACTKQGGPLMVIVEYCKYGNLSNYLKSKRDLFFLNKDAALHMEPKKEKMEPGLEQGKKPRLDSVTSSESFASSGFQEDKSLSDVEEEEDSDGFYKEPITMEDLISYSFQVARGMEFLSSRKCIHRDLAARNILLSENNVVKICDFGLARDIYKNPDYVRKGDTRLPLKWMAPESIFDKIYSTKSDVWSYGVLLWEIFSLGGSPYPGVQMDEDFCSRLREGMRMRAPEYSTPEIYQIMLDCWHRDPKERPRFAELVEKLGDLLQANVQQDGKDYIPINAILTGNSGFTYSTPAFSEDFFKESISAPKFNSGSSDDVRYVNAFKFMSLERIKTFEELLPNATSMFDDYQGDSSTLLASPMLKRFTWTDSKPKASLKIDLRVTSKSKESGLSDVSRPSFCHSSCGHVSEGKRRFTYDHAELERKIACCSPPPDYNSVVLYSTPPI
Fibroblast growth factor receptor 1 (Homo sapiens), sequence (P11362 22-822 limits assumed): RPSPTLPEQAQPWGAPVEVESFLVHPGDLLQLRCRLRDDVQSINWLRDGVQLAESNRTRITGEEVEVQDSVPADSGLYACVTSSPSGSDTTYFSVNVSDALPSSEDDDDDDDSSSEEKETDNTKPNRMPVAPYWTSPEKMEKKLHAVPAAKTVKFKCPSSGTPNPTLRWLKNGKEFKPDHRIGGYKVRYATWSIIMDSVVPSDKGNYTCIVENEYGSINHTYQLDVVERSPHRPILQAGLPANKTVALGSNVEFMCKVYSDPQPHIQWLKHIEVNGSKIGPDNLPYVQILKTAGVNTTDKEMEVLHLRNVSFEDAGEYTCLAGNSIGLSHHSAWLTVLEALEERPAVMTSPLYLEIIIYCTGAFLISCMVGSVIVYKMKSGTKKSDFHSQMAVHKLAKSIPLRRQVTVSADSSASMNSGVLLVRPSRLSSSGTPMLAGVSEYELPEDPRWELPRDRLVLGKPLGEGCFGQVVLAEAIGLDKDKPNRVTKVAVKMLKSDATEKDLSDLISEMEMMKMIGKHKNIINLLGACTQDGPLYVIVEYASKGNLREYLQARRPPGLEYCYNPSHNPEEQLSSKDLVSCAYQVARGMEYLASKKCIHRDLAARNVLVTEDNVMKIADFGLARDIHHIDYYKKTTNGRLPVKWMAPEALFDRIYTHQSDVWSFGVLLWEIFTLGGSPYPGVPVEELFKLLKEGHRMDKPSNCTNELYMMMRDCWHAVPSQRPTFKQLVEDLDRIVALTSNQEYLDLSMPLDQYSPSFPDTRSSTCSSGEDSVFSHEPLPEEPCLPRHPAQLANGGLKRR
Tyrosine-protein kinase ABL1 (Homo sapiens), sequence (P00519 whole entry): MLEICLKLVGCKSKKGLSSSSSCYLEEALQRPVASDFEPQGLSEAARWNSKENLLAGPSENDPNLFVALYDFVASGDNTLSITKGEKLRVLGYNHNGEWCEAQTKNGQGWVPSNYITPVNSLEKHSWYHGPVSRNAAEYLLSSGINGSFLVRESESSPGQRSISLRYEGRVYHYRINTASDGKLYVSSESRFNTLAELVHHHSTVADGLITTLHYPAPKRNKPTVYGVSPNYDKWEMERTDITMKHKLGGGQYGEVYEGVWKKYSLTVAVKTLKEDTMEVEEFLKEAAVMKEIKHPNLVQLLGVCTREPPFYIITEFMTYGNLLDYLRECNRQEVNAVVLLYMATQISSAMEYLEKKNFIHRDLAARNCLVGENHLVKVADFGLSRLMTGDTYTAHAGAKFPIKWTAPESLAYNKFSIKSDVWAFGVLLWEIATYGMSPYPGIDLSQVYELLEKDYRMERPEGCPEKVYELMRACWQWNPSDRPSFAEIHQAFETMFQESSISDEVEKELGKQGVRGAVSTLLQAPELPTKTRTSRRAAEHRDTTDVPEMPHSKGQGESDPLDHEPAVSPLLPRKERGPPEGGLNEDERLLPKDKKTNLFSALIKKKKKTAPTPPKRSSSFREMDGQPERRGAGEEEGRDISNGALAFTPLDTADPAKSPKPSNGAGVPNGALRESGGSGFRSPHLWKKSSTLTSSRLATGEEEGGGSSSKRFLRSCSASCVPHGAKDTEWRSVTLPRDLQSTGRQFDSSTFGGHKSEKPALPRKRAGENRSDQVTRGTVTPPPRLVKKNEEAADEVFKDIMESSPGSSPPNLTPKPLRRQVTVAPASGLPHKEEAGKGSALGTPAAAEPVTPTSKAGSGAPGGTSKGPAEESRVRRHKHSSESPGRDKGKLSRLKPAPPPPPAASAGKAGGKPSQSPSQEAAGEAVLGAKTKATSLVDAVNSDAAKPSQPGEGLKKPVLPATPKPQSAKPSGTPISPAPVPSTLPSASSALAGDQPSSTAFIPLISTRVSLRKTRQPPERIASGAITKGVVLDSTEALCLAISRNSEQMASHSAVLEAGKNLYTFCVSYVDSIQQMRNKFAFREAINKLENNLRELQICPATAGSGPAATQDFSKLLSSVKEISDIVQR
Mast/stem cell growth factor receptor Kit (Homo sapiens), sequence (P10721 whole entry): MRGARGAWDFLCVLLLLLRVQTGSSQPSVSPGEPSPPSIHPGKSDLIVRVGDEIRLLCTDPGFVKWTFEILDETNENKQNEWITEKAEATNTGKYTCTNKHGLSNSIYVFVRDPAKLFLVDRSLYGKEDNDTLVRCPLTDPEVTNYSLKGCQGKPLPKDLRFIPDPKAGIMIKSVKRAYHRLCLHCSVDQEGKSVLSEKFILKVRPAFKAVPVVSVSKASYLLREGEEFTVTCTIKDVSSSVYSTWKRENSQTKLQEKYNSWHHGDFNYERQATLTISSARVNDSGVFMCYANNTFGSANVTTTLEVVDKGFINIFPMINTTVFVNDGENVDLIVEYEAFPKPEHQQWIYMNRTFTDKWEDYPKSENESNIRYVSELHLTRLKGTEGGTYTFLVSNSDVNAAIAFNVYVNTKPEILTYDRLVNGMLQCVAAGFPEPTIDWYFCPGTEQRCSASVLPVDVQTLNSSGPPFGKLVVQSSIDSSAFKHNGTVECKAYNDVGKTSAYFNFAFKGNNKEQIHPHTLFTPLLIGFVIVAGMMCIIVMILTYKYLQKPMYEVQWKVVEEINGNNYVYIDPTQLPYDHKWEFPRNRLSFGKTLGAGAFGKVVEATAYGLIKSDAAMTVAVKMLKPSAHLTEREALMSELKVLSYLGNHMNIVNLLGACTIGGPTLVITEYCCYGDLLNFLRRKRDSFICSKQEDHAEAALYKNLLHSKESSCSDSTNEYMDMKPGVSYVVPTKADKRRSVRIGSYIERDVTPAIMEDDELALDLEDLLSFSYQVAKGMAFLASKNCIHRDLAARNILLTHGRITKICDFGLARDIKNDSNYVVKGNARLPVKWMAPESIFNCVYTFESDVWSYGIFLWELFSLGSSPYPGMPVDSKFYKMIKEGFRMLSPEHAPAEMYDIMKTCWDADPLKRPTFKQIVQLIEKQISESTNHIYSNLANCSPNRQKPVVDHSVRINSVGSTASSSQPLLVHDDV

In the case of `Cn1cc(-c2cc3c(cc2NC(=O)c2coc(-c4ccnc(N)c4)n2)CC(C)(C)O3)cn1`, the Activity (OCI-Ly10 [1]) is reported as 37.7%, the inhibition at 0.4 µM (OCI-Ly10 [2]) is reported as 75.7% and the Activity (OCI-Ly10 [3]) is reported as 45.7%. For the same compound, the inhibition [4] was “inactive”, the Activity (OCI-Ly10 [5]) was 14.2% and the Activity (OCI-Ly10 [6]) was “Active”. It also gave an Activity (OCI-Ly10 [7]) of 13.2%, an Activity (OCI-Ly10 [8]) of 22% and an inhibition at 0.1 µM (OCI-Ly10 [9]) of 44.9%. The inhibition [10] was “inactive”, the Activity (OCI-Ly10 [11]) was “Active” and the inhibition at 1.6 µM (OCI-Ly10 [12]) was 89.6%. For the same compound, the Activity (OCI-Ly10 [13]) was 67.2%, the inhibition at 0.4 µM (OCI-Ly10 [14]) was 67.2% and the inhibition [15] was “inactive”. For the same compound, the inhibition at 1.6 µM (OCI-Ly10 [16]) was 88.7%, the inhibition [17] was “inactive” and the Activity (OCI-Ly10 [18]) was “Active”. For the same compound, the inhibition [19] was “inactive”, the inhibition at 0.8 µM (OCI-Ly10 [20]) was 86.4% and the inhibition [21] was > 50%. For the same compound, the Activity (OCI-Ly10 [22]) was “Active”, the Activity (OCI-Ly10 [23]) was 33.2% and the inhibition at 0.2 µM (OCI-Ly10 [24]) was 26.9%. For the same compound, the Activity (OCI-Ly10 [25]) was “Active”, the Activity (OCI-Ly10 [26]) was 66.8% and the inhibition [27] was “inactive”. For the same compound, the Activity (OCI-Ly10 [28]) was 7.93% and the Activity (OCI-Ly10 [29]) was “Active”.
